Legend:
PEO1-OR cells = assay: MTS cytotoxicity assay, sensitization to olaparib, PEO1-OR; type: cell-based
SKOV3 cells = assay: Clonogenic assay, SKOV3; type: cell-based; conditions: DB4 at 6 μM, 14 days
Method: Cells were plated for 24 hr, pre-treated with DB4 for 1 hr, and then treated with various concentrations of olaparib for 14 days. Colonies were stained and determined for clonogenic survival.
To further substantiate the effectiveness of DB4 and mitigate the issue of off-target effects with a higher concentration range of drugs used in the MTS cytotoxicity assay, clonogenic assays were carried out to determine the long-term survival of cells in response to treatments.
The assay was conducted as described previously (Lin Z P et al., 2014, Molecular Cancer Res, 12:381-393). Cells were plated at various densities in 6-well plates in triplicate. After 24 hr of incubation, cells were treated continuously with various concentrations of olaparib, DB4, or both drugs in combination. After 12-14 days, colonies were fixed/stained with crystal violet solution and counted to determine the percentage of survival using a GelDoc imaging system with QuantityOne software (Bio-Rad, Hercules, CA).

DNA synthesis = conditions: cited from earlier work
[1] = cited from earlier work
[2] = cited from earlier work; remark: listed apart in the source

Row | SMILES | sensitization to olaparib (cell survival) (PEO1-OR cells; DB4 at 5 μM) | sensitization to olaparib (cell survival) (PEO1-OR cells; DB4 at 20 μM) | clonogenic survival in the presence of olaparib (SKOV3 cells) | time to halt DNA synthesis (DNA synthesis) [h] | side effects ([1]; patients) | clinical response rates ([1]; phase I/II studies) | half-life in plasma [2]
1 | C=CCn1c(SCc2cccc(Cl)c2)nnc1C1CCN(Cc2nc3ccccc3s2)CC1 [DB4, 2-[(4-{4-allyl-5-[(3-chlorobenzyl)thio]-4H-1,2,4-triazol-3-yl}-1-piperidinyl)methyl]-1,3-benzothiazole] | partially sensitized | near-fully sensitized | effectively reduced the clonogenic survival | – | – | – | –
2 | NC(=S)NN=Cc1ncccc1N [triapine, 3-aminopyridine-2-carboxaldehyde-thiosemicarbazone, reference compound] | – | – | – | ≤ 1 | methemoglobinemia and dyspnea | more than 80% | about 2 hr

— US20240239786A1, “COMPOSITIONS AND METHODS FOR THE TREATMENT AND PREVENTION OF CANCER” (Yale University, priority 2021, published 2024)
